Source: patent US20090023731A1, “SOLUBLE EPOXIDE HYDROLASE INHIBITORS” (Arete Therapeutics, Inc., priority 2007, published 2009)

Assays:
[1] = tested on: soluble epoxide hydrolase (sEH); test: Fluorescent assay for mouse and human soluble epoxide hydrolase (CMNPC substrate); format: biochemical
Procedure: Recombinant mouse sEH (MsEH) and human sEH (HsEH) were produced in a baculovirus expression system as previously reported. […] The expressed proteins were purified from cell lysate by affinity chromatography. […] Protein concentration was quantified using the Pierce BCA assay using bovine serum albumin as the calibrating standard.
The IC50s for each inhibitor were according to the following procedure:
Bis/Tris HCl 25 mM pH 7.0 containing 0.1 mg/mL of BSA (buffer A) CMNPC at 0.25 mM in DMSO.
Mother solution of enzyme in buffer A (Mouse sEH at 6 μg/mL and Human sEH at 5 μg/mL). Inhibitor dissolved in DMSO at the appropriate concentration.
In a black 96 well plate, fill all the wells with 150 μL of buffer A.
Add 2 μL of DMSO in well A2 and A3, and then add 2 μL of inhibitor solution in A1 and A4 through A12.
Add […] of buffer A in row A, then mix several time and transfer […] to row B. Repeat this operation up to row H. The […] removed from row H is discarded.
Add […] of buffer A in column 1 and 2, then add […] of enzyme solution to column 3 to 12.
Incubate the plate for 5 minutes in the plate reader at 30° C.
During incubation prepare the working solution of substrate by mixing 3.68 mL of buffer A (4×0.920 mL) with 266 μL (2×133 μL) of substrate solution).
The velocities are used to analyze and calculate the IC50s.

Compound | melting point | % Inh ([1]; inhibitor conc. 50 nM) | also measured
O=C(Nc1ccc(Oc2cccc(C(=O)O)c2)cc1)NC12CC3CC(CC(C3)C1)C2 [Compound 59, 3-(4-(3-Adamantan-1-ylureido)phenoxy)benzoic acid] | 185 to 187 °C | – | % Inh ([1]; inhibitor conc. 5000 nM): 99%
O=C(Nc1ccc(Oc2ccc(C(=O)O)cc2)cc1)NC12CC3CC(CC(C3)C1)C2 [Compound 65, 4-(4-(3-(adamantyl)ureido)phenoxy)benzoic acid] | 162 to 166 °C | – | % Inh ([1]; inhibitor conc. 2000 nM): 100%
O=C(Nc1ccc(F)cc1)Nc1cccc(OCc2ccccc2)c1 [Compound 38, 1-(3-Benzyloxy-phenyl)-3-(4-fluoro-phenyl)-urea] | 187 to 189 °C | 93% | –
O=C(Nc1ccc(Oc2ccc(C(=O)O)cc2)cc1)Nc1cccc(C(F)(F)F)c1 [Compound 67, 4-(4-(3-(3-(trifluoromethyl)phenyl)ureido)phenoxy)benzoic acid] | 318 °C | – | % Inh ([1]; inhibitor conc. 2000 nM): 99%
O=C(Nc1cccc(Oc2ccc(C(=O)O)cc2)c1)NC12CC3CC(CC(C3)C1)C2 [Compound 68] | 152 to 154 °C | – | –
O=C(Nc1ccc(Oc2ccccc2)cc1)Nc1ccc(C(F)(F)F)cc1 [Compound 39, 1-(4-Phenoxy-phenyl)-3-(4-trifluoromethyl-phenyl)-urea] | 211 to 213 °C | 90% | –
O=C(Nc1ccc(Oc2cccc(C(=O)O)c2)cc1)Nc1ccc(C(F)(F)F)cc1 [Compound 60, 3-(4-(3-(4-(trifluoromethyl)phenyl)ureido)phenoxy)benzoic acid] | – | – | % Inh ([1]; inhibitor conc. 500 nM): 92%
O=C(Nc1cccc(OCCCN2CCOCC2)c1)Nc1c(F)cc(F)cc1F [Compound 6, 1-[3-(3-Morpholin-4-yl-propoxy)-phenyl]-3-(2,4,6-trifluoro-phenyl)-urea] | – | – | % Inh ([1]; inhibitor conc. 50000 nM): 92%
O=C(Nc1ccc(OCCN2CCOCC2)cc1)Nc1cccc(OCCCN2CCOCC2)c1 [Compound 18, 1-[4-(2-Morpholin-4-yl-ethoxy)-phenyl]-3-[3-(3-morpholin-4-yl-propoxy)-phenyl]-urea] | – | – | % Inh ([1]; inhibitor conc. 500 nM): 66%
O=C(Nc1ccc(C(F)(F)F)cc1)Nc1cccc(OCc2ccccc2)c1 [Compound 37, 1-(3-Benzyloxy-phenyl)-3-(4-trifluoromethyl-phenyl)-urea] | 208 to 210 °C | 99% | –
O=C(Nc1ccc(C(F)(F)F)cc1)Nc1cccc(Oc2ccc(C(=O)O)cc2)c1 [Compound 69, 4-(3-(3-(4-(trifluoromethyl)phenyl)ureido)phenoxy)benzoicacid] | – | – | % Inh ([1]; inhibitor conc. 2000 nM): 100%
O=C(Nc1ccc(C(F)(F)F)cc1)Nc1ccc(F)c(OCCCN2CCOCC2)c1 [Compound 32, 1-[4-Fluoro-3-(3-morpholin-4-yl-propoxy)-phenyl]-3-(4-trifluoromethyl-phenyl)-urea] | – | 87% | –
O=C(Nc1ccc(Oc2ccc(C(=O)O)cc2)cc1)Nc1ccc(C(F)(F)F)cc1 [Compound 66, 4-(4-(3-(4-(trifluoromethyl)phenyl)ureido)phenoxy)benzoic acid] | > 400 °C | – | % Inh ([1]; inhibitor conc. 2000 nM): 100%
O=C(CC12CC3CC(CC(C3)C1)C2)Nc1ccc(OCCCN2CCOCC2)cc1 [Compound 46, 2-Adamantan-1-yl-N-[4-(3-morpholin-4-yl-propoxy)-phenyl]-acetamide] | – | 93% | –
O=C(Cc1ccc(C(F)(F)F)cc1)Nc1ccc(OCCCN2CCOCC2)cc1 [Compound 27, N-[4-(3-Morpholin-4-yl-propoxy)-phenyl]-2-(4-trifluoromethyl-phenyl)-acetamide] | – | – | % Inh ([1]; inhibitor conc. 500 nM): 83%
O=C(Nc1ccc(C(F)(F)F)cc1)Nc1cccc(Oc2cccc(C(=O)O)c2)c1 [Compound 71, 3-(3-(3-(4-(trifluoromethyl)phenyl)ureido)phenoxy)benzoicacid] | – | – | % Inh ([1]; inhibitor conc. 2000 nM): 98%
O=C(Nc1ccc(F)cc1)Nc1cccc(OCCCN2CCOCC2)c1 [Compound 2, 1-(4-Fluoro-phenyl)-3-[3-(3-morpholin-4-yl-propoxy)-phenyl]-urea] | – | 82% | –
O=C(Nc1ccc(C(F)(F)F)cc1)Nc1cccc(OCCCN2CCOCC2)c1 [Compound 9, 1-[3-(3-Morpholin-4-yl-propoxy)-phenyl]-3-(4-trifluoromethyl-phenyl)-urea] | – | 82% | –
O=C(Nc1ccc(C(F)(F)F)cc1)Nc1cccc(Oc2ccccc2)c1 [Compound 40, 1-(3-Phenoxy-phenyl)-3-(4-trifluoromethyl-phenyl)-urea] | 178 to 181 °C | 96% | –
O=C(Nc1ccc(Cl)cc1)Nc1ccc(F)c(OCCCN2CCOCC2)c1 [Compound 30, 1-(4-Chloro-phenyl)-3-[4-fluoro-3-(3-morpholin-4-yl-propoxy)-phenyl]-urea] | – | – | % Inh ([1]; inhibitor conc. 500 nM): 96%
O=C(Cc1ccc(Cl)cc1)Nc1ccc(OCCCN2CCOCC2)cc1 [Compound 20, 2-(4-Chloro-phenyl)-N-[4-(3-morpholin-4-yl-propoxy)-phenyl]-acetamide] | – | – | % Inh ([1]; inhibitor conc. 500 nM): 72%
O=C(CC12CC3CC(CC(C3)C1)C2)NC1CCCC(OCCCN2CCOCC2)C1 (stereo not drawn) [Compound 49, 2-Adamantan-1-yl-N-[3-(3-morpholin-4-yl-propoxy)-cyclohexyl]-acetamide] | – | 79% | –
O=C(Nc1ccc(Cl)cc1)Nc1cccc(OCCCN2CCOCC2)c1 [Compound 15, 1-(4-Chloro-phenyl)-3-[3-(3-morpholin-4-yl-propoxy)-phenyl]-urea] | – | 94% | –
O=C(CNC12CC3CC(CC(C3)C1)C2)Nc1cccc(OCCCN2CCOCC2)c1 [Compound 58, 2-(Adamantan-1-ylamino)-N-[3-(3-morpholin-4-yl-propoxy)-phenyl]-acetamide] | – | – | % Inh ([1]; inhibitor conc. 500 nM): 81%
O=C(Nc1cccc(OCc2ccccc2)c1)NC12CC3CC(CC(C3)C1)C2 [Compound 57, 1-Adamantan-1-yl-3-(3-benzyloxy-phenyl)-urea] | 232 to 235 °C | 98% | –
O=C(CC12CC3CC(CC(C3)C1)C2)Nc1ccc(F)c(OCCCN2CCOCC2)c1 [Compound 52, 2-Adamantan-1-yl-N-[4-fluoro-3-(3-morpholin-4-yl-propoxy)-phenyl]-acetamide] | – | – | % Inh ([1]; inhibitor conc. 500 nM): 93%
O=C(Nc1ccc(Cl)cc1)Nc1ccc(OCCCN2CCOCC2)cc1 [Compound 26, 1-(4-Chloro-phenyl)-3-[4-(3-morpholin-4-yl-propoxy)-phenyl]-urea] | – | 88% | –
O=C(Nc1ccc(Oc2ccc(C(=O)O)cc2)cc1)Nc1ccc(OC(F)(F)F)cc1 [Compound 64, 4-(4-(3-(4-(trifluoromethoxy)phenyl)ureido)phenoxy)benzoic acid] | – | – | % Inh ([1]; inhibitor conc. 2000 nM): 100%
O=C(Cc1ccc(OC(F)(F)F)cc1)Nc1cccc(OCCCN2CCOCC2)c1 [Compound 23, N-[3-(3-Morpholin-4-yl-propoxy)-phenyl]-2-(4-trifluoromethoxy-phenyl)-acetamide] | – | – | % Inh ([1]; inhibitor conc. 500 nM): 86%
O=C(Nc1ccc(F)c(OCCCN2CCOCC2)c1)NC1CCCCC1 [Compound 54, 1-Cyclohexyl-3-[4-fluoro-3-(3-morpholin-4-yl-propoxy)-phenyl]-urea] | – | 83% | –
